Test results: ChEMBL document CHEMBL1124182, “Design, synthesis, and properties of (4S)-7-(4-amino-2-substituted-pyrrolidin-1-yl)quinolone-3-carboxylic acids” (J Med Chem, 1988)
Converted amounts (≈) assume the structure as drawn.

Legend:
Escherichia coli [1] = assay: In vitro Minimum inhibitory concentration against Escherichia coli Juhl; type: functional
Klebsiella pneumoniae [2] = assay: In vitro Minimum inhibitory concentration against Klebsiella pneumoniae 8045; type: functional
Staphylococcus aureus [3] = assay: In vitro Minimum inhibitory concentration against Staphylococcus aureus ATCC 6538P; type: functional
Mus musculus [4] = assay: In vivo efficacy against Escherichia coli Juhl, in mouse protection test when administered subcutaneously (sc); type: functional
Mus musculus [5] = assay: In vivo efficacy against Staphylococcus aureus 10649, in mouse protection test when administered perorally (po); type: functional
[6] = Partition coefficient (logP); type: physicochemical; settings: octanol/water
Mus musculus [7] = assay: In vivo efficacy against Escherichia coli Juhl, in mouse protection test when the administered perorally (po); type: functional
Mus musculus [8] = assay: Blood level was evaluated at 1.0 hr when administered at a peroral dose of 25 mg/kg; type: functional; settings: route oral
Mus musculus [9] = assay: Blood level was evaluated at 6.0 hr when administered at a peroral dose of 25 mg/kg; type: functional; settings: route oral
Escherichia coli [10] = assay: Supercoiling inhibition assay using purified DNA gyrase isolated from Escherichia coli H560; type: functional; settings: read-out: I50
Mus musculus [11] = assay: Blood level was evaluated at 24.0 hr when administered at a peroral dose of 25 mg/kg; type: functional; settings: route oral
Streptococcus pyogenes = assay: In vitro Minimum inhibitory concentration against Streptococcus pyogenes 930; type: functional
Staphylococcus aureus [12] = assay: In vitro Minimum inhibitory concentration against Staphylococcus aureus CMX 686B; type: functional
Streptococcus equinus = assay: In vitro Minimum inhibitory concentration against Streptococcus bovis A5169; type: functional
[13] = test system: Staphylococcus epidermidis; assay: In vitro Minimum inhibitory concentration against Staphylococcus epidermidis 3519; type: functional
Streptococcus agalactiae = assay: In vitro Minimum inhibitory concentration against Streptococcus agalactiae CMX 508; type: functional
Staphylococcus aureus [14] = assay: In vitro Minimum inhibitory concentration against Staphylococcus aureus A5177; type: functional
[15] = Compound was evaluated for the solubility in Ringer's buffer solution; type: ADME; settings: Ringer's buffer solution; read-out: Solubility
Mus musculus [16] = assay: Blood level was evaluated at 2.0 hr when administered at a peroral dose of 25 mg/kg; type: functional; settings: route oral
Pseudomonas aeruginosa [17] = assay: In vitro Minimum inhibitory concentration against Pseudomonas aeruginosa 5007; type: functional
Enterococcus faecium = assay: In vitro Minimum inhibitory concentration against Streptococcus faecium ATCC 8043; type: functional
Pseudomonas aeruginosa [18] = assay: In vitro Minimum inhibitory concentration against Pseudomonas aeruginosa K799/WT; type: functional
Mus musculus [19] = assay: Blood level was evaluated by a disk agar diffusion assay at 0.5 hr when administered at a peroral dose of 25 mg/kg; type: functional; settings: route oral
Staphylococcus aureus [20] = assay: In vitro Minimum inhibitory concentration against Staphylococcus aureus 45; type: functional
Mus musculus [21] = assay: In vivo efficacy against Staphylococcus aureus 10649, in mouse protection test when administered subcutaneously (sc); type: functional
Mus musculus [22] = assay: Blood level was evaluated at 3.0 hh when administered at a peroral dose of 25 mg/kg; type: functional; settings: route oral
Acinetobacter [23] = assay: In vitro Minimum inhibitory concentration against Acinetobacter CMX 669; type: functional
Mus musculus [24] = assay: In vivo efficacy against Escherichia coli Juhl, in mouse protection tests. when administered perorally (po); type: functional
[25] = Blood level was evaluated by a disk agar diffusion assay at 3.0 hh when administered at a peroral dose of 100 mg/kg; type: ADME, organism-based; set-up: dose 100 mg/kg, route oral; settings: mouse, po, read-out: Blood level
Acinetobacter [26] = assay: In vitro Minimum inhibitory concentration against Acinetobacter CMX 669
Klebsiella pneumoniae [27] = assay: In vitro Minimum inhibitory concentration against Klebsiella pneumoniae 8045

MIC (Escherichia coli [1]) [µg/mL] | MIC (Klebsiella pneumoniae [2]) [µg/mL] | MIC (Staphylococcus aureus [3]) [µg/mL] | logP [6] | MIC (Streptococcus pyogenes) [µg/mL] | MIC (Staphylococcus aureus [12]) [µg/mL] | MIC (Streptococcus equinus) [µg/mL] | MIC [13] [µg/mL] | MIC (Streptococcus agalactiae) [µg/mL] | MIC (Staphylococcus aureus [14]) [µg/mL] | solubility [15] [µg/mL] | MIC (Pseudomonas aeruginosa [17]) [µg/mL] | MIC (Enterococcus faecium) [µg/mL] | MIC (Pseudomonas aeruginosa [18]) [µg/mL] | MIC (Staphylococcus aureus [20]) [µg/mL] | MIC (Acinetobacter [23]; Acinetobacter, read-out: MIC) [µg/mL] | Structure (SMILES) | ED50 (Mus musculus [4]) [mg/kg] | ED50 (Mus musculus [5]) [mg/kg] | ED50 (Mus musculus [21]) [mg/kg] | also measured
0.02 (≈ 0.0478 µM) | 0.02 (≈ 0.0478 µM) | 0.02 (≈ 0.0478 µM) | -0.2 | 0.2 (≈ 0.478 µM) | 0.02 (≈ 0.0478 µM) | 0.2 (≈ 0.478 µM) | 0.05 (≈ 0.12 µM) | 0.2 (≈ 0.478 µM) | 0.05 (≈ 0.12 µM) | 150 (≈ 359 µM) | 0.78 (≈ 1.86 µM) | 0.1 (≈ 0.239 µM) | 0.78 (≈ 1.86 µM) | 0.05 (≈ 0.12 µM) | 0.1 (≈ 0.239 µM) | C[C@H]1C[C@H](N)CN1c1nc2c(cc1F)c(=O)c(C(=O)O)cn2-c1ccc(F)cc1F | 0.6 | > 2.5 | 0.9 | ED50 (Mus musculus [7]): 2.7 mg/kg; Blood level (Mus musculus [8]): 3.2 µg/mL; Blood level (Mus musculus [9]): 1.3 µg/mL; IC50 (Escherichia coli [10]): 0.6 µg/mL (≈ 1.43 µM); Blood level (Mus musculus [11]): 0.2 µg/mL; Blood level (Mus musculus [16]): 3.3 µg/mL; Blood level (Mus musculus [19]): 5.9 µg/mL; Blood level (Mus musculus [22]): 2.8 µg/mL
0.1 (≈ 0.232 µM) | 0.05 (≈ 0.116 µM) | 0.05 (≈ 0.116 µM) | – | 0.1 (≈ 0.232 µM) | 0.05 (≈ 0.116 µM) | 0.2 (≈ 0.464 µM) | 0.1 (≈ 0.232 µM) | 0.1 (≈ 0.232 µM) | 0.1 (≈ 0.232 µM) | – | 6.2 (≈ 14.4 µM) | 0.2 (≈ 0.464 µM) | 0.78 (≈ 1.81 µM) | 0.1 (≈ 0.232 µM) | 0.2 (≈ 0.464 µM) | CCC1C[C@H](N)CN1c1cc2c(cc1F)c(=O)c(C(=O)O)cn2-c1ccc(F)cc1F (stereo partly specified) | 2.4 | 2.4 | 0.8 | ED50 (Mus musculus [24]): 9.6 mg/kg
0.05 (≈ 0.124 µM) | 0.05 (≈ 0.124 µM) | 0.05 (≈ 0.124 µM) | – | 0.2 (≈ 0.496 µM) | 0.05 (≈ 0.124 µM) | 0.78 (≈ 1.93 µM) | 0.1 (≈ 0.248 µM) | 0.2 (≈ 0.496 µM) | 0.1 (≈ 0.248 µM) | – | 1.56 (≈ 3.87 µM) | 0.2 (≈ 0.496 µM) | – | 0.1 (≈ 0.248 µM) | 0.1 (≈ 0.248 µM) | NC1CCN(c2cc3c(cc2F)c(=O)c(C(=O)O)cn3-c2ccc(F)cc2F)C1 (stereo unspecified) | – | – | – | concentration at 3 h [25]: 900 ng/mL; MIC (Acinetobacter [26]): 0.1 µg/mL (≈ 0.248 µM); MIC (Acinetobacter [23]): 0.1 µg/mL (≈ 0.248 µM)
0.78 (≈ 1.6 µM) | – | 1.56 (≈ 3.21 µM) | -0.56 | 25 (≈ 51.4 µM) | 1.56 (≈ 3.21 µM) | 25 (≈ 51.4 µM) | 3.1 (≈ 6.37 µM) | 25 (≈ 51.4 µM) | 3.1 (≈ 6.37 µM) | 680 (≈ 1400 µM) | 1.56 (≈ 3.21 µM) | 6.2 (≈ 12.7 µM) | 1.56 (≈ 3.21 µM) | 3.1 (≈ 6.37 µM) | – | N[C@H]1CC(CN2CCCC2)N(c2cc3c(cc2F)c(=O)c(C(=O)O)cn3-c2ccc(F)cc2F)C1 (stereo partly specified) | – | – | – | MIC (Klebsiella pneumoniae [27]): 0.39 µg/mL (≈ 0.802 µM)
